Measured values taken from patent US5053216A, “Radioactive Jomol, its derivatives, processes for the production of these compounds, their use and product” (priority 1985, dated 1991).

Tests used:
[1] = human body; cited from earlier work
[2] = type: physicochemical; conditions: acid environment / stomach

Structure (SMILES)	rate of metabolism versus ethanol [1]	removal of bound radium [2]
CO [Methanol]	substantially more slowly	
O=Cc1ccc2c(c1)OCC(=O)N1CCOCCOCCN(CCOCCOCC1)C(=O)CO2 [CE]		instable in the stomach, stable in the rest of the body
